This is an account of results in US20240425523A1, “Compounds for the Degradation of EGFR Kinase” (Beigene Switzerland GMBH, priority 2023, published 2024).

Molecules are shown by their SMILES.

Type in all cases: cell-based
The target of assay [1] is T1, EGFR L858R (BaF3-L858R cells) (Homo sapiens, UniProt P00533, L858R).
T1 construct: host or cells: BaF3
The experiment in a line: Cell degradation of EGFR, HTRF assay, BaF3-L858R cells. Particulars: 16 h treatment; for DC50: EGFR degradation; for Dmax: maximum percentage of degradation. An outline of the steps: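 BaF3-L858R cells treated 16 h at 37° C, 5% CO2 with compound (top 10 uM final, 5-fold, 8 doses, 0.1% DMSO). DC50 from four-parameter fit; Dmax is maximum percent degradation.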
(In general: TR-FRET usually uses a lanthanide donor and a delayed reading to cut background.)

Assay [2] deals with T2, p-EGFR L858R (BaF3-L858R cells) (Homo sapiens, UniProt P00533, L858R).
T2 construct: host or cells: BaF3
The experiment in a line: Cell p-EGFR inhibition assay, HTRF, BaF3-L858R cells. Particulars: 16 h treatment; for Imax (%): maximum percentage of pEGFR inhibition; for IC50: pEGFR inhibition. An outline of the steps: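 BaF3-L858R cells treated 16 h at 37 °C, 5% CO2 with compound from 10 uM top, 5-fold dilutions, 8 doses, in 0.1% DMSO medium. Lysates read overnight by HTRF p-EGFR antibodies; IC50 fitted to four-parameter curve against DMSO high control.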

Assay [3] addresses p-EGFR Del19/C797S (H1975-clone #23 cells) (Homo sapiens, UniProt P00533). Kind of assay: Cell p-EGFR inhibition assay, HTRF, H1975-clone#23 (DEL19/C797S) cells. The following applies: 16 h treatment; for Imax (%): maximum percentage of pEGFR inhibition; for IC50: pEGFR inhibition. An outline of the steps: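 Phospho-EGFR read by overnight HTRF on lysates, normalized to DMSO-treated high control; IC50, Hill slope and Imax fitted. Compounds were applied for 16 h (10 uM top, 5-fold steps, 8 doses) to an H1975 single clone carrying only exogenous Del19/C797S EGFR after sgRNA knockout of endogenous copies.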

Assay [4] concerns the target T3, EGFR-L858R/C797S (H1975-clone #8 cells) (Homo sapiens, UniProt P00533, C797S/L858R).
T3 construct: expressed in transfected cells; host or cells: H1975 (endogenous EGFR knocked out, clone #8)
The experiment in a line: Cell degradation of EGFR, HTRF assay, H1975-clone#8 (L858R/C797S) cells. Particulars: 16 h treatment; for DC50: EGFR degradation; for Dmax: maximum percentage of degradation.

As for `Cc1cc2cc(n1)-c1cnn(C)c1OC[C@H]1CCC(C1)CN1/C(=N/C2=O)Nc2ccc(N3CCC(N4CCC(Nc5cc(F)c([C@H]6CCC(=O)NC6=O)c(F)c5)CC4)CC3)cc21` (single isomer, unassigned) [Example 116], in assay [1], the half-maximal degradation concentration (DC50) (as a rule, the concentration at which degradation of the target reaches its halfway point) was found to be 1.25 nM and the Dmax (in general, the largest share of the target that was removed) was found to be 85.4%. In assay [2], the “Imax (%)” value worked out at 98.5% and the IC50 (as a rule, the concentration needed to halve the response being measured) amounted to 7.9 nM. In assay [3], the “Imax (%)” value was 99.4% and the midpoint of inhibition, the IC50, lay at 0.8 nM. For the same compound, in assay [4], the 50% degradation concentration (DC50) came out at 0.61 nM and the maximal degradation (Dmax) is 83.4%.
For the compound `COC[C@H]1CN(c2ccc3c(c2)N2C[C@@H]4CC[C@H](COc5c(cnn5C)-c5cc(cc(C)n5)C(=O)/N=C/2N3)C4)CCN1C1CCN(c2ccc(C3CCC(=O)NC3=O)nc2C)CC1` (stereo partly drawn) [Example 65, 3-(5-(4-((R)-4-((7^1R,7^3S,E)-1^1,2^6-dimethyl-3-oxo-5^2,5^3-dihydro-1^1H,5^1H-9-oxa-4-aza-5(2,1)-benzo[d]imidazola-2(2,4)-pyridina-1(4,5)-pyrazola-7(1,3)-cyclopentanacyclononaphane-5^6-yl)-2-(methoxymethyl)piperazin-1-yl)piperidin-1-yl)-6-methylpyridin-2-yl)piperidine-2,6-dione], in assay [1], the DC50 came out at 0.94 nM and the Dmax was 88.7%. Moreover, in assay [2], the “Imax (%)” value is reported as 103% and half-maximal inhibition (IC50) required 2.8 nM. Also, in assay [3], the “Imax (%)” value was 101.5% and half-maximal inhibition (IC50) required 0.3 nM. Moreover, in assay [4], the 50% degradation concentration (DC50) was found to be 0.87 nM and the Dmax stood at 78.6%.
In assay [1], `Cc1cc2cc(n1)-c1cnn(C)c1OC[C@H]1CC[C@H](C1)CN1/C(=N/C2=O)Nc2ccc(N3CCN(C4CCN(c5ccc(NC6CCC(=O)NC6=O)cc5F)CC4)CC3)cc21` (some centres unmarked) [Example 59, 3-((4-(4-(4-((7^1R,7^3S,E)-1^1,2^6-dimethyl-3-oxo-5^2,5^3-dihydro-1^1H,5^1H-9-oxa-4-aza-5(2,1)-benzo[d]imidazola-2(2,4)-pyridina-1(4,5)-pyrazola-7(1,3)-cyclopentanacyclononaphane-5^6-yl)piperazin-1-yl)piperidin-1-yl)-3-fluorophenyl)amino)piperidine-2,6-dione] gave a 50% degradation concentration (DC50) of 3.18 nM and a maximal degradation (Dmax) of 85.1%. Also, in assay [2], the “Imax (%)” value is 102.5% and the half-inhibitory concentration (IC50) is 7 nM. In assay [3], the “Imax (%)” value was 99.6% and half-maximal inhibition (IC50) was put at 0.7 nM. For the same compound, in assay [4], the DC50 is 2.87 nM and the Dmax was 69%.
In the case of `Cc1cc2cc(n1)-c1cnn(C)c1OC[C@H]1CCC(C1)CN1/C(=N/C2=O)Nc2ccc(N3CCN([C@@H]4CCN(c5ccc(C6CCC(=O)NC6=O)nc5C)CC4(F)F)CC3)cc21` (stereo partly drawn) [Example 105, 3-(5-((R)-4-(4-((7^1R,7^3S,E)-1^1,2^6-dimethyl-3-oxo-5^2,5^3-dihydro-1^1H,5^1H-9-oxa-4-aza-5(2,1)-benzo[d]imidazola-2(2,4)-pyridina-1(4,5)-pyrazola-7(1,3)-cyclopentanacyclononaphane-5^6-yl)piperazin-1-yl)-3,3-difluoropiperidin-1-yl)-6-methylpyridin-2-yl)piperidine-2,6-dione], the DC50 in assay [1] is 3.68 nM; in assay [4], 4.09 nM. Moreover, the greatest degradation seen (Dmax) was found to be 82.7% in assay [1] and 85.2% in assay [4]. Moreover, the “Imax (%)” value is 93.9% in assay [2] and 100.1% in assay [3]. Further, the IC50 turned out to be 10.1 nM in assay [2] and 0.7 nM in assay [3].
Turning to `COC[C@H]1CN(c2ccc3c(c2)N2C[C@@H]4CC[C@H](COc5c(c(C)nn5C)-c5cc(cc(Cl)n5)C(=O)/N=C/2N3)C4)CCN1C1CCN(c2cc(F)c([C@H]3CCC(=O)NC3=O)c(F)c2)CC1` [Example 176, (R)-3-(4-(4-((R)-4-((7^1R,7^3S,E)-2^6-chloro-1^1,1^3-dimethyl-3-oxo-5^2,5^3-dihydro-1^1H,5^1H-9-oxa-4-aza-5(2,1)-benzo[d]imidazola-2(2,4)-pyridina-1(4,5)-pyrazola-7(1,3)-cyclopentanacyclononaphane-5^6-yl)-2-(methoxymethyl)piperazin-1-yl)piperidin-1-yl)-2,6-difluorophenyl)piperidine-2,6-dione], the figures for the DC50 in assay [1] and in assay [4] were 8.27 nM and 10.7 nM, respectively. For the same compound, the maximal degradation (Dmax) was found to be 89% in assay [1] and 85.4% in assay [4]. For the same compound, the “Imax (%)” value in assay [2] is listed as 94.16%; in assay [3] it was 101.78%. Besides, the half-inhibitory concentration (IC50) in assay [2] was determined as 15.2 nM; in assay [3], 3.6 nM.
Take `Cc1cc2cc(n1)-c1c(C)nn(C)c1OC[C@H]1CCC(C1)CN1/C(=N/C2=O)Nc2ccc(N3CCN(C4CCN(c5cc(F)c([C@H]6CCC(=O)NC6=O)c(F)c5)CC4)[C@@H](C)C3)cc21` [Example 135, (R)-3-(2,6-difluoro-4-(4-((S)-2-methyl-4-((7^1R,7^3S,E)-1^1,1^3,2^6-trimethyl-3-oxo-5^2,5^3-dihydro-1^1H,5^1H-9-oxa-4-aza-5(2,1)-benzo[d]imidazola-2(2,4)-pyridina-1(4,5)-pyrazola-7(1,3)-cyclopentanacyclononaphane-5^6-yl)piperazin-1-yl)piperidin-1-yl)phenyl)piperidine-2,6-dione]: the DC50 amounted to 3.08 nM in assay [1] and 1.91 nM in assay [4]. Further, the results for the Dmax in assay [1] and in assay [4] were 89.1% and 86.9%, respectively. The “Imax (%)” value in assay [2] was 104.33%; in assay [3] it was 104.78%. Also, the figures for the IC50 in assay [2] and in assay [3] were 2.32 nM and 1.4 nM, respectively.
In assay [1], `Cc1cc2cc(n1)-c1c(C)nn(C)c1OC[C@H]1CC[C@H](C1)CN1/C(=N/C2=O)Nc2ccc(N3CCC(N4CCC(Nc5cc(F)c([C@H]6CCC(=O)NC6=O)c(F)c5)CC4)CC3)cc21` (single isomer, unassigned) [Example 213] had a half-maximal degradation concentration (DC50) of 2.18 nM and a Dmax of 88.3%. Besides, in assay [2], the “Imax (%)” value is given as 88.33% and inhibition was half-maximal at 0.871 nM (IC50). In assay [3], the “Imax (%)” value was found to be 98.77% and the midpoint of inhibition, the IC50, lay at 1.69 nM. In assay [4], this compound registered a DC50 of 0.63 nM and a Dmax of 82.5%.
In assay [1], `Cc1cc2cc(n1)-c1c(C)nn(C)c1OC[C@H]1CC[C@H](C1)CN1/C(=N/C2=O)Nc2ccc(N3CCN(C4CCN(c5cc(F)c([C@H]6CCC(=O)NC6=O)c(F)c5)CC4)[C@@H](CC#N)C3)cc21` [Example 163, 2-((S)-1-(1-(4-((R)-2,6-dioxopiperidin-3-yl)-3,5-difluorophenyl)piperidin-4-yl)-4-((7^1R,7^3S,E)-1^1,1^3,2^6-trimethyl-3-oxo-5^2,5^3-dihydro-1^1H,5^1H-9-oxa-4-aza-5(2,1)-benzo[d]imidazola-2(2,4)-pyridina-1(4,5)-pyrazola-7(1,3)-cyclopentanacyclononaphane-5^6-yl)piperazin-2-yl)acetonitrile] displayed a half-maximal degradation concentration (DC50) of 4.4 nM and a Dmax of 88.1%. In addition, in assay [2], the “Imax (%)” value was 94.53% and 2.24 nM corresponded to half-maximal inhibition (IC50). Moreover, in assay [3], the “Imax (%)” value came to 96.05% and half-maximal inhibition (IC50) required 0.6 nM. Further, in assay [4], it took 2.97 nM to reach half-maximal degradation (DC50) and the Dmax was determined as 82.5%.
In assay [1], `COC[C@@H]1CN(c2ccc3c(c2)N2CC4CC[C@H](COc5c(cnn5C)-c5cc(cc(C)n5)C(=O)/N=C/2N3)C4)CCN1CC1CN(c2cc(F)c([C@H]3CCC(=O)NC3=O)c(F)c2)C1` [Example 86, (R)-3-(4-(3-(((S)-4-((7^1R,7^3S,E)-1^1,2^6-dimethyl-3-oxo-5^2,5^3-dihydro-1^1H,5^1H-9-oxa-4-aza-5(2,1)-benzo[d]imidazola-2(2,4)-pyridina-1(4,5)-pyrazola-7(1,3)-cyclopentanacyclononaphane-5^6-yl)-2-(methoxymethyl)piperazin-1-yl)methyl)azetidin-1-yl)-2,6-difluorophenyl)piperidine-2,6-dione] gave a DC50 of 2.74 nM and a Dmax of 70.3%. In addition, in assay [2], the “Imax (%)” value worked out at 97.1% and the midpoint of inhibition, the IC50, lay at 17.2 nM. In assay [3], the “Imax (%)” value was 100.2% and half-maximal inhibition (IC50) was put at 3 nM. In assay [4], this compound showed a 50% degradation concentration (DC50) of 3.22 nM and a Dmax of 66%.
With `Cc1cc2cc(n1)-c1cnn(C)c1OC[C@H]1CCC(C1)CN1/C(=N/C2=O)Nc2ccc(N3CCC(CN4CC(Nc5cc(F)c([C@H]6CCC(=O)NC6=O)c(F)c5)C4)CC3)cc21` [Example 132, (R)-3-(4-((1-((1-((7^1R,7^3S,E)-1^1,2^6-dimethyl-3-oxo-5^2,5^3-dihydro-1^1H,5^1H-9-oxa-4-aza-5(2,1)-benzo[d]imidazola-2(2,4)-pyridina-1(4,5)-pyrazola-7(1,3)-cyclopentanacyclononaphane-5^6-yl)piperidin-4-yl)methyl)azetidin-3-yl)amino)-2,6-difluorophenyl)piperidine-2,6-dione], in assay [1], the 50% degradation concentration (DC50) turned out to be 3.22 nM and the Dmax is 81%. Also, in assay [2], the “Imax (%)” value came to 97.32% and the midpoint of inhibition, the IC50, lay at 62.7 nM. Also, in assay [3], the “Imax (%)” value is listed as 100.62% and it took 0.63 nM to reach half-maximal inhibition (IC50). In addition, in assay [4], it took 2.05 nM to reach half-maximal degradation (DC50) and the greatest degradation seen (Dmax) was 66%.
